Laboratory results taken from patent US7563918B2, “Solid and crystalline ibandronate sodium and processes for preparation thereof” (Teva Pharmaceutical Industries Ltd., priority 2004, dated 2009).

Assay: Storage stability of crystalline form (polymorphic transformation)
Assay type: physicochemical
Conditions: stored under 100% relative humidity at 40° C. for 3 days
From the text: In another embodiment, the present invention provides a solid crystalline form of ibandronate sodium denominated Form QQ. Form QQ is characterized by x-ray powder diffraction reflections at 6.2, 25.9, 26.7, 31.1, and 37.2±0.2 degrees two-theta. Form QQ can be further characterized by x-ray powder diffraction reflections at 16.9, 17.3, 21.5, 24.7, and 29.2±0.2 degrees two-theta. […] Form QQ also has a particle size distribution of not more than 100μpreferably not more than 60μ. […] can be a in the range of a monohydrate to a trihydrate. Form QQ can be further characterized by TGA, showing a weight loss of about 5 to about 12%.

For `CCCCCN(C)CCC(O)(P(=O)([O-])O)P(=O)(O)O.[Na+]` [Form QQ, (1-hydroxy-3-(N-methyl-N-pentylamino)propylidene) bisphosphonic acid monosodium salt], which “transformation into other polymorphic forms when stored” value is on record?
Its value is no more than 5%.
